In PubChem BioAssay (NCI) one finds TGI and GI50 data, which are given here for nine compounds.

The structures appear in SMILES notation.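 The compound was tested at five concentrations on cells cultured in 96-well plates, with a 48-hour exposure period. The concentration for 50% growth inhibition is given as GI50. TGI is the concentration that stops growth completely.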

Some test systems named below: HCT-116 colon; ACHN renal; BT-549 breast; SF-539 CNS; NCI-H460 lung; CAKI-1 renal; COLO 205 colon; SW-620 colon; SF-295 CNS; NCI-H522 lung.
Common to all, as to assay: NCI-60 cell line screen, 48 h

As for `CC12CCC(C1)C(C)(C)C2OC(=O)c1ccccc1N` (stereo not given), the TGI is 26.6 µM in the assay with HCT-116 colon; 33 µM in the assay on ACHN renal; 34.3 µM in the assay on BT-549 breast; 33.7 µM in the assay on SF-539 CNS; 30.7 µM with NCI-H460 lung; 29.9 µM in the assay with CAKI-1 renal. The TGI in the assay with COLO 205 colon was found to be 29 µM; in the assay with SW-620 colon, 29.6 µM; in the assay on SF-295 CNS, 35.6 µM; with NCI-H522 lung, 22.7 µM.

As to `COC(=O)[C@]1(C)CCC[C@@]2(C)C3=C(CC[C@H]12)C[C@@H](CC(OC(C)=O)OC(C)=O)[C@@H](C)C3`, the GI50 was 8.21 µM in the assay with HCT-116 colon; 13.9 µM in the assay on ACHN renal; 12.8 µM with BT-549 breast; 10.7 µM in the assay with SF-539 CNS; 9.2 µM in the assay with NCI-H460 lung; 8.73 µM in the assay on CAKI-1 renal. Further, the GI50 in the assay on COLO 205 colon was 11 µM; in the assay with SW-620 colon, 11 µM; in the assay on SF-295 CNS, 11 µM; with NCI-H522 lung, more than 28 µM. Moreover, the TGI in the assay with HCT-116 colon is 18.9 µM; with ACHN renal, more than 28.2 µM; in the assay on BT-549 breast it was 25.2 µM; with SF-539 CNS, 20.3 µM; in the assay on NCI-H460 lung it was 25.3 µM; in the assay with CAKI-1 renal, 18.2 µM. Moreover, the TGI is 27.4 µM in the assay on COLO 205 colon, 22.7 µM in the assay with SW-620 colon, 26.7 µM in the assay on SF-295 CNS and more than 50 µM with NCI-H522 lung.

As to `COc1cc(OC)c(/C=C/C(=O)c2c(OC)cc(OC)cc2OC)c(OC)c1`, the GI50 with HCT-116 colon was 0.6 µM; with ACHN renal, 2.3 µM; with BT-549 breast, 0.931 µM; in the assay on SF-539 CNS, 1.27 µM; in the assay on NCI-H460 lung it was 0.976 µM; in the assay on CAKI-1 renal, 1.66 µM. Moreover, the GI50 was 1.08 µM in the assay on COLO 205 colon, 0.417 µM with SW-620 colon, 0.75 µM in the assay with SF-295 CNS and 0.515 µM in the assay with NCI-H522 lung. The TGI in the assay on HCT-116 colon is 10.2 µM; with ACHN renal it was more than 100 µM; in the assay with BT-549 breast, more than 24.5 µM; with SF-539 CNS it was 3.31 µM; in the assay on NCI-H460 lung it was 7.74 µM; in the assay with CAKI-1 renal it was more than 37.2 µM. Further, the TGI is 3.96 µM in the assay on COLO 205 colon, 2.91 µM in the assay on SW-620 colon, more than 21 µM in the assay on SF-295 CNS and 4.18 µM with NCI-H522 lung.

As to `O=C1C=CC2C3C(=O)N(c4ccccc4)C(=O)C3C1N2Cc1ccccc1` (stereo not given), the GI50 in the assay with HCT-116 colon is 1.56 µM; in the assay on ACHN renal it was 3.36 µM; in the assay on BT-549 breast, 3.45 µM; with SF-539 CNS it was 1.66 µM; in the assay with NCI-H460 lung, 3.49 µM; in the assay on CAKI-1 renal, 4.1 µM. In addition, the GI50 with SW-620 colon was 1.93 µM; in the assay with SF-295 CNS it was 6.41 µM; in the assay on NCI-H522 lung, 2.68 µM. Further, the TGI in the assay with HCT-116 colon turned out to be 3.27 µM; in the assay on ACHN renal, 7.61 µM; in the assay with BT-549 breast, 8.87 µM; in the assay with SF-539 CNS, 3.81 µM; in the assay with NCI-H460 lung, 9.01 µM; with CAKI-1 renal, 8.15 µM. Besides, the TGI in the assay with COLO 205 colon was 5.37 µM; with SW-620 colon, 4.32 µM; in the assay on SF-295 CNS, 15.4 µM; with NCI-H522 lung, 7.64 µM.

With `CCN1CCN(C(=O)[C@]23CC[C@@H](C)[C@H](C)[C@@H]2C2=CC[C@@H]4[C@@]5(C)CCC(=O)C(C)(C)[C@@H]5CC[C@@]4(C)[C@]2(C)CC3)CC1`, the GI50 with HCT-116 colon was 0.798 µM; in the assay on ACHN renal, 1.33 µM; with BT-549 breast, 0.833 µM; in the assay on SF-539 CNS, 0.843 µM; in the assay on NCI-H460 lung, 0.93 µM; in the assay on CAKI-1 renal it was 0.946 µM. Further, the GI50 in the assay on COLO 205 colon was 1.02 µM; in the assay on SW-620 colon, 0.902 µM; in the assay on SF-295 CNS, 0.82 µM; in the assay with NCI-H522 lung, 0.831 µM. Besides, the TGI in the assay on HCT-116 colon worked out at 1.57 µM; in the assay with ACHN renal, 4.38 µM; with BT-549 breast, 1.58 µM; in the assay on SF-539 CNS, 1.54 µM; with NCI-H460 lung, 1.75 µM; in the assay on CAKI-1 renal, 2.96 µM. The TGI in the assay on COLO 205 colon was 2.37 µM; in the assay with SW-620 colon, 1.76 µM; with SF-295 CNS it was 1.59 µM; in the assay with NCI-H522 lung, 1.75 µM.

Regarding `Oc1c(C(c2ccc(F)cc2)N2CCCCC2)ccc2cncnc12` (stereo not given), the GI50 is 0.364 µM in the assay on HCT-116 colon; 1.24 µM in the assay on ACHN renal; 0.576 µM in the assay on BT-549 breast; 0.388 µM in the assay with SF-539 CNS; 0.351 µM with NCI-H460 lung; 0.899 µM in the assay on CAKI-1 renal. Besides, the GI50 in the assay on COLO 205 colon was 3.3 µM; in the assay on SW-620 colon it was 0.478 µM; in the assay with SF-295 CNS it was 0.413 µM; in the assay with NCI-H522 lung, 0.353 µM. Moreover, the TGI in the assay on HCT-116 colon is more than 100 µM; with ACHN renal, more than 100 µM; with BT-549 breast it was more than 100 µM; with SF-539 CNS it was more than 81.2 µM; with NCI-H460 lung, 14.1 µM; in the assay on CAKI-1 renal, 13.4 µM. Also, the TGI was more than 100 µM in the assay on COLO 205 colon, more than 100 µM in the assay on SW-620 colon, more than 100 µM in the assay with SF-295 CNS and 10.2 µM with NCI-H522 lung.

As to `COC(=O)C1=C(C)NC(=S)NC1c1ccc(N(CCCl)CCCl)cc1Cl` (stereo not given), the TGI was more than 100 µM with HCT-116 colon; more than 75.9 µM with ACHN renal; more than 100 µM in the assay with BT-549 breast; more than 100 µM with SF-539 CNS; more than 100 µM in the assay on NCI-H460 lung; 14.6 µM in the assay with CAKI-1 renal. In addition, the TGI in the assay on COLO 205 colon was 59.7 µM; in the assay on SW-620 colon, more than 100 µM; in the assay with SF-295 CNS, more than 82.4 µM; with NCI-H522 lung it was 81.9 µM. The GI50 in the assay with BT-549 breast was 73.5 µM.

As to `Cc1ccsc1C(NC(=O)c1ccccc1)c1cc(Cl)c2cccnc2c1O` (stereo not given), the GI50 in the assay on HCT-116 colon was 0.431 µM; in the assay with ACHN renal, 0.45 µM; in the assay with BT-549 breast, 2.04 µM; with SF-539 CNS, 0.479 µM; in the assay on NCI-H460 lung, 0.341 µM; in the assay with CAKI-1 renal, 0.495 µM. Moreover, the GI50 was 0.318 µM in the assay on COLO 205 colon, 0.4 µM with SW-620 colon, 0.333 µM in the assay on SF-295 CNS and 0.271 µM with NCI-H522 lung. The TGI with HCT-116 colon amounted to 13.1 µM; in the assay with ACHN renal it was 11.2 µM; with BT-549 breast, 21.3 µM; in the assay on SF-539 CNS, 10.4 µM; with NCI-H460 lung, 2.03 µM; with CAKI-1 renal, 14.9 µM. Besides, the TGI was 10.6 µM in the assay with COLO 205 colon, 15 µM with SW-620 colon, 12.2 µM in the assay with SF-295 CNS and 2.11 µM in the assay with NCI-H522 lung.

For the compound `Cc1cc(N(CCC#N)S(=O)(=O)c2ccccc2)ccc1C=Nc1ccc(C(=O)O)cc1`, the TGI in the assay on HCT-116 colon was 14.7 µM; in the assay on ACHN renal, more than 33.2 µM; in the assay with BT-549 breast, more than 100 µM; in the assay on SF-539 CNS, 30.7 µM; in the assay with NCI-H460 lung it was 29.9 µM; with CAKI-1 renal it was 5.73 µM. For the same compound, the TGI in the assay on COLO 205 colon came to 10.1 µM; in the assay with SW-620 colon, 15 µM; in the assay on SF-295 CNS it was 44.8 µM; with NCI-H522 lung it was 9.13 µM.
